Experimental data reported in patent publication EP4745138A1, “THIO-GLUTARIMIDO ISOINDOLINONE DERIVATIVE, BIFUNCTIONAL PROTEIN DEGRADER CONTAINING SAME, AND USES THEREOF” (Gluetacs Therapeutics (Shanghai) Co., Ltd., priority 2023, dated 2025).
Like-named read-outs stand apart in the source and are kept apart here.

Experiments:
[1] = tested on: MV-4-11; test: Tumor cell proliferation inhibition (CellTiter-Meiluncell Luminescent Cell Viability Assay); assay type: cell-based; conditions: Homo sapiens, 96 hours; for inhibition at 0.01 µM: MV4-11, 10 nM, read-out: Inhibition Rate at 10 nM (%); for inhibition at 0.5 µM: MV4-11, 500 nM, read-out: Inhibition Rate at 500 nM (%)
Method: The tumor cells used herein were cultured in a cell culture medium listed in table 3 at 37°C in an incubator with 5% CO2. Prior to experimentation, all cell lines used were correctly identified by STR profiling, and tested negative for mycoplasma contamination using a mycoplasma detection kit through routine screenings. Table 3. Tumor cells and cell culture medium used in the present disclosure
The IC50 values of the compounds of the present disclosure (including the compounds in Table 1, Table 2, and Examples) were determined using the CellTiter-Meiluncell Luminescent Cell Viability Assay Kit from Dalian Meilun Biotech Co., Ltd. The detailed procedure is as follows: Tumor cells were seeded in 96-well cell culture plates at the densities specified in Table 4. On the following day, the test compounds of the present disclosure were subjected to serial dilution. […] Subsequently, 0.5 µL of the test compound dilution was transferred into the 96-well plate containing the cells, with each well containing 100 µL of cell culture medium. […] Into the 96-well plate, the diluted test compounds and corresponding detection reagents were added, resulting in final test compound concentrations of 500 nM and 10 nM, respectively. The experimental procedure is described below using the diluted 2 µM test compound as an example.
0.5 µL of the aforementioned diluted compound of the present disclosure (including the compounds in Table 1, Table 2, and Examples) was added to the seeded cells in 100 µL of medium, yielding a final test compound concentration of 10 nM. After the cells were treated with the compounds of the present disclosure for a specified period, the cell viability assay reagent was added to the culture medium according to the kit's instructions to determine cell viability. […] All controls were treated using the same procedure as the compounds of the present disclosure. […] Seeding protocol and treatment time for tumor cells

[2] = target: T1, human Cereblon WT GST-tagged protein (Homo sapiens, UniProt Q96SW2); test: CRBN-binding affinity, HTRF (CEREBLON BINDING kit); conditions: for inhibition at 0.5 µM: read-out: Inhibition Rate at 0.5 µM (%); for inhibition at 2 µM: read-out: Inhibition Rate at 2 µM (%)
T1 construct: purchased CISBIO 64BDCRBNPEH
Outline: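 cpd (final 2 µM, 0.5 µM; diluent #9 1X) + GST-CRBN WT + thalidomide-Red/anti-GST Eu mix; HTRF readout. Blanks: diluent + PROTAC binding buffer + detection mix.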

T1 sequence (Q96SW2 whole entry): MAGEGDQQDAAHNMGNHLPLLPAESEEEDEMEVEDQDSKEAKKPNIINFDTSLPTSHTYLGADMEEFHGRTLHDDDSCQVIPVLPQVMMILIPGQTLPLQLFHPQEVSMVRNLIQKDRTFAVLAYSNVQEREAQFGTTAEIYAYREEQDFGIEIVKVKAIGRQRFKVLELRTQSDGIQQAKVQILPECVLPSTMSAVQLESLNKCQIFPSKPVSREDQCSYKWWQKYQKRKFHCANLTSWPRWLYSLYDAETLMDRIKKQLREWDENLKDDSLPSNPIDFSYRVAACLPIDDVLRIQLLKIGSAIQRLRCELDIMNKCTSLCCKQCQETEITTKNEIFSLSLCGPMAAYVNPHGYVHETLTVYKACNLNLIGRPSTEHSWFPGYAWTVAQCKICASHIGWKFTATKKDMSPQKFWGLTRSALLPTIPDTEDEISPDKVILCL

| SMILES | inhibition at 0.01 µM ([1]; Table I-6, IRAK4 inhibitors) | inhibition at 0.5 µM ([1]; Table I-6, IRAK4 inhibitors) | inhibition at 0.5 µM [2] | inhibition at 2 µM [2] | inhibition at 0.01 µM ([1]; Table I-7, CDK9 inhibitors) | inhibition at 0.5 µM ([1]; Table I-7, CDK9 inhibitors) | inhibition at 0.01 µM ([1]; Table I-3, EGFR inhibitors) | inhibition at 0.5 µM ([1]; Table I-3, EGFR inhibitors) |
| --- | --- | --- | --- | --- | --- | --- | --- | --- |
| COc1cc2nn(C3CCN(Cc4ccc5c(c4)CN(C4CCC(=O)NC4=O)C5=S)CC3)cc2cc1NC(=O)c1cccc(C(F)(F)F)n1 (stereo not shown) [GT-05296, N-(2-(1-((2-(2,6-dioxopiperidin-3-yl)-1-thioxoisoindolin-5-yl)methyl)piperidin-4-yl)-6-methoxy-2H-indazol-5-yl)-6-(trifluoromethyl)picolinamide] | 10 to 20% | 50 to 60% | 60 to 80% | 80 to 100% |  |  |  |  |
| Cc1cc(-c2nc(C(=O)Nc3cc4oc(N5CCN(Cc6ccc7c(c6)CN(C6CCC(=O)NC6=O)C7=S)CC5)nc4nc3N3CC[C@@H](O)C3)co2)ccn1 (stereo partly drawn) [GT-05322, N-(2-(4-((2-(2,6-dioxopiperidin-3-yl)-1-thioxoisoindolin-5-yl)methyl)piperazin-1-yl)-5-((R)-3-hydroxypyrrolidin-1-yl)oxazolo[4,5-b]pyridin-6-yl)-2-(2-methylpyridin-4-yl)oxazole-4-carboxamide] | 10 to 20% | 80 to 100% | 60 to 80% | 80 to 100% |  |  |  |  |
| Cn1ncc(-c2nc(NC3CCN(Cc4ccc5c(c4)C(=S)N(C4CCC(=O)NC4=O)C5)CC3)ncc2Cl)c1CC1CC1 (stereo not shown) [GT-08751, 3-(6-((4-((5-chloro-4-(5-(cyclopropylmethyl)-1-methyl-1H-pyrazol-4-yl)pyrimidin-2-yl)amino)piperidin-1-yl)methyl)-1-thioxoisoindolin-2-yl)piperidine-2,6-dione] |  |  | 40 to 53% | 80 to 100% | 10 to 20% | 60 to 70% |  |  |
| COc1cc(N2CCC(N(C)Cc3ccc4c(c3)CN(C3CCC(=O)NC3=O)C4=S)CC2)c(C)cc1Nc1ncc(Br)c(Nc2ccc3nccnc3c2P(C)(C)=O)n1 (stereo not shown) [GT-08754, 3-(5-(((1-(4-((5-bromo-4-((5-(dimethylphosphoryl)quinoxalin-6-yl)amino)pyrimidin-2-yl)amino)-5-methoxy-2-methylphenyl)piperidin-4-yl)(methyl)amino)methyl)-1-thioxoisoindolin-2-yl)piperidine-2,6-dione] |  |  | 80 to 100% | 80 to 100% |  |  | 10 to 20% | 70 to 80% |
| COc1cc(N2CCC(N3CCN(Cc4ccc5c(c4)CN(C4CCC(=O)NC4=O)C5=S)CC3)CC2)c(C)cc1Nc1ncc(Br)c(Nc2ccc3nccnc3c2P(C)(C)=O)n1 (stereo not shown) [GT-08755, 3-(5-((4-(1-(4-((5-bromo-4-((5-(dimethylphosphoryl)quinoxalin-6-yl)amino)pyrimidin-2-yl)amino)-5-methoxy-2-methylphenyl)piperidin-4-yl)piperazin-1-yl)methyl)-1-thioxoisoindolin-2-yl)piperidine-2,6-dione] |  |  | 80 to 100% | 80 to 100% |  |  | 20 to 30% | 70 to 80% |
| COC1CCN(c2nccc(Nc3cc4c(cn3)c(N3CCN(Cc5ccc6c(c5)CN(C5CCC(=O)NC5=O)C6=S)CC3)nn4C(C)C)n2)CC1 (stereo not shown) [GT-08756, 3-(5-((4-(1-isopropyl-6-((2-(4-methoxypiperidin-1-yl)pyrimidin-4-yl)amino)-1H-pyrazolo[4,3-c]pyridin-3-yl)piperazin-1-yl)methyl)-1-thioxoisoindolin-2-yl)piperidine-2,6-dione] |  |  | 30 to 40% | 80 to 100% |  |  | 5 to 10% | 40 to 50% |
| COc1cc(N2CCC(N(C)Cc3cccc4c3CN(C3CCC(=O)NC3=O)C4=S)CC2)c(C)cc1Nc1ncc(Br)c(Nc2ccc3nccnc3c2P(C)(C)=O)n1 (stereo not shown) [GT-08758, 3-(4-(((1-(4-((5-bromo-4-((5-(dimethylphosphoryl)quinoxalin-6-yl)amino)pyrimidin-2-yl)amino)-5-methoxy-2-methylphenyl)piperidin-4-yl)(methyl)amino)methyl)-1-thioxoisoindolin-2-yl)piperidine-2,6-dione] |  |  | 53 to 60% | 60 to 80% |  |  | 10 to 20% | 60 to 70% |
